Source: the C3SDB collision cross section collection
Where “and” joins values, the source holds several entries; their conditions need not be identical. Equal entries are not always repeated.

Conditions: instrument: TW, calibrated with polyalanine and drug standards

Nc1ccn([C@@H]2O[C@H](CO)[C@@H](O)[C@@H]2O)c(=O)n1 [CYTARABINE]
collision cross section (N2) ([M+H]+): 150.5 Å²

O=c1cccc2n1C[C@@H]1CNC[C@H]2C1 [CYTISINE]
collision cross section (N2) ([M+H]+): 137.9 Å²

COc1cccc2c1C(=O)c1c(O)c3c(c(O)c1C2=O)C[C@@](O)(C(C)=O)C[C@@H]3O[C@H]1C[C@H](N)[C@H](O)[C@H](C)O1 [DAUNORUBICIN]
collision cross section (N2) ([M+H]+): 222.9 Å²

CC(=O)O[C@H]1C[C@@H](OC(C)=O)C(C)(C)C2CC(=O)[C@]3(C)C(CC[C@@]4(C)[C@H](C(=O)O)OC(=O)C5OC543)[C@]21C (stereo partly specified) [DEACETOXY(7)-7-OXOKHIVORINIC ACID]
collision cross section (N2) ([M+H]+): 212.6 Å²

COc1cc2c(cc1OC)-c1c(oc3c4c(ccc3c1=O)OC(C(C)C)C4)CO2 (stereo unspecified) [DEHYDRODIHYDROROTENONE]
collision cross section (N2) ([M+H]+): 194.6 Å²

COc1ccc2c(c1)OCc1c-2oc2cc(OC)ccc12 [DEHYDROVARIABILIN]
collision cross section (N2) ([M+H]+): 159 Å²

COc1ccc2c(c1)OCC(Cc1ccc(O)c(OC)c1)C2=O (stereo unspecified) [DEOXYSAPPANONE B 7,3'-DIMETHYL ETHER]
collision cross section (N2) ([M+H]+): 171.2 Å²

COc1ccc2c(c1)OCC(Cc1ccc(OC)c(O)c1)C2=O (stereo unspecified) [DEOXYSAPPANONE B 7,4'-DIMETHYL ETHER]
collision cross section (N2) ([M+H]+): 170.6 Å²

COc1ccc(-c2cc(C(F)F)nn2-c2ccc(S(N)(=O)=O)cc2)cc1F [DERACOXIB]
collision cross section (N2) ([M+H]+): 189.9 Å²

COc1cc(OC)c2c(OC)c(-c3ccc4c(c3)OCO4)c(=O)oc2c1 [DERRUSNIN]
collision cross section (N2) ([M+H]+): 176.7 Å²

C=C[C@@]1(C)CC(=O)[C@@]2(O)[C@](C)(O1)[C@@H](O)[C@@H](O)C1C(C)(C)CC[C@H](O)[C@@]12C (stereo partly specified) [DESACETYLCOLFORSIN]
collision cross section (N2) ([M+Na]+): 185.6 Å²

CC1(C)O[C@@H]2C[C@H]3[C@@H]4CCC5=CC(=O)C=C[C@]5(C)[C@H]4[C@@H](O)C[C@]3(C)[C@]2(C(=O)CO)O1 [DESONIDE]
collision cross section (N2) ([M+H]+): 198.5 Å²

CC(=O)OCC(=O)[C@H]1CC[C@H]2[C@@H]3CCC4=CC(=O)CC[C@]4(C)[C@H]3CC[C@]12C [DESOXYCORTICOSTERONE ACETATE]
collision cross section (N2) ([M+H]+): 193.8 Å²

CC1CC2C3CCC4=CC(=O)C=CC4(C)C3(F)C(O)CC2(C)C1C(=O)CO (stereo unspecified) [DESOXYMETASONE]
collision cross section (N2) ([M+H]+): 186.4 Å²

C=CCSSSCC=C [DIALLYL TRISULFIDE]
collision cross section (N2) ([M+H]+): 126.9 Å²

COP(=O)(OC)OC=C(Cl)Cl [DICHLORVOS]
collision cross section (N2) ([M+H]+): 138.7 Å²

CCCc1cc(OC)c2c(c1)OCO2 [DIHYDROMYRISTICIN]
collision cross section (N2) ([M+H]+): 128.7 Å²

Cc1cccc2c3c(ccc12)C1=C(C(=O)C3=O)[C@@H](C)CO1 [DIHYDROTANSHINONE I]
collision cross section (N2) ([M+H]+): 159.4 Å²

CN(C(=O)C(Cl)Cl)c1ccc(OC(=O)c2ccco2)cc1 [DILOXANIDE FUROATE]
collision cross section (N2) ([M+H]+): 171.7 Å²

COC(=O)NC(=S)Nc1ccccc1NC(=S)NC(=O)OC [DIMETHYL 4,4-o-PHENYLENE-BIS (3-THIOPHANATE)]
collision cross section (N2) ([M+H]+): 173.3 Å²

COc1ccc(C(=O)c2ccccc2O)c(O)c1 [DIOXYBENZONE]
collision cross section (N2) ([M+H]+): 150 Å²

OCCN(CCO)c1nc(N2CCCCC2)c2nc(N(CCO)CCO)nc(N3CCCCC3)c2n1 [DIPYRIDAMOLE]
collision cross section (N2) ([M+H]+): 223.9 Å²

CC(=O)Oc1cccc(C(=O)O)c1OC(C)=O [DIPYROCETYL]
collision cross section (N2) ([M+Na]+): 150 Å²

CCN(CC)C(=S)SSC(=S)N(CC)CC [DISULFIRAM]
collision cross section (N2) ([M+H]+): 165.5 Å²

COc1ccc2c(c1OC)OC[C@@H](c1ccc(OC)c(OC)c1OC)C2 [DUARTIN, DIMETHYL ETHER]
collision cross section (N2) ([M+Na]+): 183.2 Å²

CCn1cc(C(=O)O)c(=O)c2cc(F)c(N3CCNCC3)nc21 [ENOXACIN]
collision cross section (N2) ([M+H]+): 168.1 Å² and 184.7 Å²

CCN1CCN(c2cc3c(cc2F)c(=O)c(C(=O)O)cn3C2CC2)CC1 [ENROFLOXACIN]
collision cross section (N2) ([M+H]+): 190.6 Å²

CCC(C)C(=O)O[C@@H]1C[C@@]2(C)[C@H](c3ccoc3)OC(=O)CC23OC2(C)OC34[C@H](OC(=O)C(C)C)[C@@]3(O)[C@@H](OC(=O)C5(C)OC5C)[C@@]5(C)C[C@]3(O)[C@@](C)([C@H]5CC(=O)OC)C14O2 (stereo partly specified) [ENTANDROPHRAGMIN]
collision cross section (N2) ([M+H]+): 259.8 Å²

O=C(O[C@@H]1Cc2c(O)cc(O)cc2O[C@@H]1c1ccc(O)c(O)c1)c1cc(O)c(O)c(O)c1 [EPICATECHIN MONOGALLATE]
collision cross section (N2) ([M+H]+): 202.9 Å²

CCN(CC)C(=O)c1ccc(O)c(OC)c1 [ETHAMIVAN]
collision cross section (N2) ([M+H]+): 149 Å²

CCc1cc(C(N)=S)ccn1 [ETHIONAMIDE]
collision cross section (N2) ([M+H]+): 135.8 Å²

CCOc1ccc2c(c1)C(C)=CC(C)(C)N2 [ETHOXYQUIN]
collision cross section (N2) ([M+H]+): 152.6 Å²

CCOC(=O)c1ccc(O)cc1 [ETHYL PARABEN]
collision cross section (N2) ([M+H]+): 125.4 Å²

CCOC(=O)c1cncn1C(C)c1ccccc1 (stereo unspecified) [ETOMIDATE]
collision cross section (N2) ([M+H]+): 155.9 Å²

CC(=O)OCC(CCn1cnc2cnc(N)nc21)COC(C)=O [FAMCICLOVIR]
collision cross section (N2) ([M+H]+): 168.4 Å²

Cc1nc(-c2ccc(OCC(C)C)c(C#N)c2)sc1C(=O)O [FEBUXOSTAT]
collision cross section (N2) ([M+H]+): 180.6 Å²
